Source: ChEMBL document CHEMBL1201862, “PubChem BioAssay data set” (2004)
Where a name gives a salt, the structure may show the parent alone. The source made the active and inactive calls.

How the values were obtained:
[1] = biological target: Eukaryotic translation initiation factor 4E (Mus musculus, UniProt P63073); assay: eIF4E–eIF4G protein interaction inhibitors, dose response, biochemical, TR-FRET (AID 855); type: functional;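 note: potency for disrupting eIF4E binding to eIF4GI seen as loss of FRET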
Chain of Eukaryotic translation initiation factor 4E (P63073 whole entry): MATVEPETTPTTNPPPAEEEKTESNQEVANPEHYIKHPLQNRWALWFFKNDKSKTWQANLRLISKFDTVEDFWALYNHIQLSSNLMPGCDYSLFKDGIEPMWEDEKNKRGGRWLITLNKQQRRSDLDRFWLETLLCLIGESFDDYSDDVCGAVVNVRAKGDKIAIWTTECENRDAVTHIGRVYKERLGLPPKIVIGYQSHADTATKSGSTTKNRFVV

Streptokinase A = biological target: T1, Streptokinase A (Streptococcus pyogenes serotype M1, UniProt P10520); assay: S. pyogenes streptokinase expression inhibitors, potency, dose response, plasminogen activation absorbance, OD405 (AID 1914); type: functional, Streptococcus pyogenes M1 GAS;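 note: secreted streptokinase activity via plasminogen activation per viability signal from cell pellet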
T1 sequence (P10520 whole entry): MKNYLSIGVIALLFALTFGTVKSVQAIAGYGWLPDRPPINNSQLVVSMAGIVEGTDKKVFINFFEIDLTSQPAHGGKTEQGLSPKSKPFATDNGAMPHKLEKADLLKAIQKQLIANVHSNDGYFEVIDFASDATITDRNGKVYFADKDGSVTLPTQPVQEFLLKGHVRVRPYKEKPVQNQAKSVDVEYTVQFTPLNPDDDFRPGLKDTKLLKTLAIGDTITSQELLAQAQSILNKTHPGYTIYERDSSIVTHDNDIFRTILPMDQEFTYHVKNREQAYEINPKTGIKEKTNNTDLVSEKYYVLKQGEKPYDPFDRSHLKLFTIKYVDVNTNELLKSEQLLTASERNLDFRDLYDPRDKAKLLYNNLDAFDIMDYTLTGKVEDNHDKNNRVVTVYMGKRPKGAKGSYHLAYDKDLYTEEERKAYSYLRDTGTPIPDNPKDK

[2] = Luminescence Cell-Based Dose Retest to Confirm Inhibitors of Cancer Stem Cells. [Related pubchem assays (depositor defined):AID2717, AID2721]; type: functional; settings: Homo sapiens
Streptococcus = assay: Group A Streptococcus viability loss, dose response, counter-screen for streptokinase expression inhibitor project, luminescence, BacTiterGlo (AID 1915); type: functional, organism-based;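 note: potency for reduction of bacterial viability or growth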
[3] = cytotoxicity in HEK-293T cells, dose response, cytotoxicity control for BCR NF-kB inhibitor project, luminescence, B-cell screen hits (AID 489021); type: functional, cell-based;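 note: HEK-293T cells carrying an NF-kB luciferase reporter; cells exposed to compound for about 14 hours before viability readout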
[4] = test system: Streptococcus sp. 'group A'; assay: growth inhibition of control SK(-) GAS strain, dose response, counter-screen for streptokinase expression inhibitor project, luminescence, kanamycin, BacTiterGlo, confirmation (AID 1900); type: functional, organism-based
[5] = biological target: T2, Heat shock factor protein 1 (Mus musculus, UniProt P38532); assay: inhibition of MG132-induced HSE-luciferase signal, confirmation, cell-based, NIH3T3, luminescence, dose retest (AID 2382); type: functional;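 note: NIH3T3 fibroblasts with HSF1-driven luciferase reporter stressed by proteasome inhibitor MG132; luminescence from HSF1-driven luciferase expression after 8 hours of MG132 stress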
T2 sequence (P38532 whole entry): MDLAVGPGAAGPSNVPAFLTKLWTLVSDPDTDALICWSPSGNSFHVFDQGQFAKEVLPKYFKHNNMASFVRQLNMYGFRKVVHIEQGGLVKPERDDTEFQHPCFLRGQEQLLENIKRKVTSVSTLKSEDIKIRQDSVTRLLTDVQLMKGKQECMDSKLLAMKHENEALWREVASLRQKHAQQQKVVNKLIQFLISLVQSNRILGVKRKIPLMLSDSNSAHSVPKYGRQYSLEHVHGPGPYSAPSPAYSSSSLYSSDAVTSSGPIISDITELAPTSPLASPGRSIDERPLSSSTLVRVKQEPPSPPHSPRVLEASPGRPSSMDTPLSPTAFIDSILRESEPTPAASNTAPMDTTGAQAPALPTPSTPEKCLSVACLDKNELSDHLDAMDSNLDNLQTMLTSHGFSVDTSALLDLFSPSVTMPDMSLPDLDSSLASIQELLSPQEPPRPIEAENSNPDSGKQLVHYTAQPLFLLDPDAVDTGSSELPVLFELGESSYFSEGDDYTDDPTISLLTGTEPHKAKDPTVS

[6] = A cytotoxicity screen of small molecule inhibitors of the PhoP region in Salmonella typhi identified in the primary screen. [Related pubchem assays: 1850, 1864, 1985 ]; type: functional
Mucolipin-3 = biological target: T3, Mucolipin-3 (Homo sapiens, UniProt Q8TDD5); assay: Dose response cell-based high-throughput screening assay for agonists of the transient receptor potential channel ML3 (TRPML3). [Related pubchem assays: 1526, 1424, 1448 ]; type: functional
T3 sequence (Q8TDD5 whole entry): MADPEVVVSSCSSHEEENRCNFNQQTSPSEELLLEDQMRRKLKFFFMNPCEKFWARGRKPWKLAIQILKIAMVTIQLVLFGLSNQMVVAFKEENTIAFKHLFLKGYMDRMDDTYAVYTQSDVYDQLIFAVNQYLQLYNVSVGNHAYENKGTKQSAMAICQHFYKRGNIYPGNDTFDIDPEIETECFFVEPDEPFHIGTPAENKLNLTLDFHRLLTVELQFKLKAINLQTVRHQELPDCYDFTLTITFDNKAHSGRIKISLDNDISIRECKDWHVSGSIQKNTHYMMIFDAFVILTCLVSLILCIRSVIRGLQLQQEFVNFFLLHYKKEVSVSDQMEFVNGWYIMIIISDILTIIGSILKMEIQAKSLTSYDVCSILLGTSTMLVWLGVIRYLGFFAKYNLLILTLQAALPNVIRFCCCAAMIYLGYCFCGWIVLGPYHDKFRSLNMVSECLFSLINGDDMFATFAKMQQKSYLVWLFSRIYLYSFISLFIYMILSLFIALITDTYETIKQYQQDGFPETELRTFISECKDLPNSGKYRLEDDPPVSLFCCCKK

Ion channel NompC = Ion channel NompC (Danio rerio, UniProt Q7T1G6); assay: Fluorescence counterscreen assay for TRPML3 agonists: dose response cell-based high-throughput screening assay to identify agonists of the transient receptor potential channel N1 (TRPN1). [Related pubchem assays: 1526, 1424, 1448 ]; type: functional
Chain of Ion channel NompC (Q7T1G6 whole entry): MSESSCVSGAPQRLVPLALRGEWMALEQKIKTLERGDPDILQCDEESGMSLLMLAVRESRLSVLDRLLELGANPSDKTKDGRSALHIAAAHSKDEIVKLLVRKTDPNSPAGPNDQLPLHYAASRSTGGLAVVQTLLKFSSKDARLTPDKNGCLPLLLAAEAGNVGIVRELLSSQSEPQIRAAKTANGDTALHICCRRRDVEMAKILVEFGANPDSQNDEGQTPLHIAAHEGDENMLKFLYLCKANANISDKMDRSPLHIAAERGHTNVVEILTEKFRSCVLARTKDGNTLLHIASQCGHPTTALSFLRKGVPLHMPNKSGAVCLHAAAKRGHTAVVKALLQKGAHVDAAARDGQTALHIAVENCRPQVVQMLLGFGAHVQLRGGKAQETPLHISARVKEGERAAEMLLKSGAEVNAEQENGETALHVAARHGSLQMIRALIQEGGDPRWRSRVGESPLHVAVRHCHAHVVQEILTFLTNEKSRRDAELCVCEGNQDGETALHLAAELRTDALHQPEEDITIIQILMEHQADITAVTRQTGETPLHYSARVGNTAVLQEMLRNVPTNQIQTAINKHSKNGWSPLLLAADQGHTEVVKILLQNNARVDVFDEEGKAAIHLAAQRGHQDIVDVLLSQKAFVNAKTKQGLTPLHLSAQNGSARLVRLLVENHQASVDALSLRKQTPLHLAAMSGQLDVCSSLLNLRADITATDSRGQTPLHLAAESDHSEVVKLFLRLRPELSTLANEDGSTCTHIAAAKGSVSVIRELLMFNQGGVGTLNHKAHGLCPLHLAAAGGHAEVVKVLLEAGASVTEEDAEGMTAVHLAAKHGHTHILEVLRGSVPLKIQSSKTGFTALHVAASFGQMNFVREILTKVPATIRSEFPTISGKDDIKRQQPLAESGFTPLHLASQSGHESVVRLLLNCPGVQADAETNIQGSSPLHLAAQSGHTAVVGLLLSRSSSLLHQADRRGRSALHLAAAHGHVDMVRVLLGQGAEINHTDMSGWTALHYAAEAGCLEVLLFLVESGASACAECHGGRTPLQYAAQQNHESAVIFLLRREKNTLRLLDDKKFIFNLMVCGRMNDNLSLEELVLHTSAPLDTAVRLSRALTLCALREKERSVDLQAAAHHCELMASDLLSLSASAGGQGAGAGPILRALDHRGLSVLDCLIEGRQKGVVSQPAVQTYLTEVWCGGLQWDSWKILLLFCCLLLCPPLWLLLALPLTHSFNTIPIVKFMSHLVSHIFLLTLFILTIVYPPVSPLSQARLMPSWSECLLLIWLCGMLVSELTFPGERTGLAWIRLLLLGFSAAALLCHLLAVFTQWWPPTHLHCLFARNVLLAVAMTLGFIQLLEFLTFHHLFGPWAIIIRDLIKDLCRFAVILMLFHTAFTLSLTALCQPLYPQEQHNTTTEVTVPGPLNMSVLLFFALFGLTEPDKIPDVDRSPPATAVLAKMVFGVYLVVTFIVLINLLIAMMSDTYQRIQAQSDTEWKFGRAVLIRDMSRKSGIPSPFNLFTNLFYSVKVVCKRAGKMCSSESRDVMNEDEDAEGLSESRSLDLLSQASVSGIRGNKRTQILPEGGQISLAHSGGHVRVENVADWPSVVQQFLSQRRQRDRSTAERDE

[7] = biological target: DNA dC->dU-editing enzyme APOBEC-3G (Homo sapiens, UniProt Q9HC16); assay: Dose Response confirmation of small molecule APOBEC3G DNA Deaminase Inhibitors via a fluorescence-based single-stranded DNA deaminase assay. [Related pubchem assays (depositor defined):AID493012, AID493028]; type: functional
Chain of DNA dC->dU-editing enzyme APOBEC-3G (Q9HC16 whole entry): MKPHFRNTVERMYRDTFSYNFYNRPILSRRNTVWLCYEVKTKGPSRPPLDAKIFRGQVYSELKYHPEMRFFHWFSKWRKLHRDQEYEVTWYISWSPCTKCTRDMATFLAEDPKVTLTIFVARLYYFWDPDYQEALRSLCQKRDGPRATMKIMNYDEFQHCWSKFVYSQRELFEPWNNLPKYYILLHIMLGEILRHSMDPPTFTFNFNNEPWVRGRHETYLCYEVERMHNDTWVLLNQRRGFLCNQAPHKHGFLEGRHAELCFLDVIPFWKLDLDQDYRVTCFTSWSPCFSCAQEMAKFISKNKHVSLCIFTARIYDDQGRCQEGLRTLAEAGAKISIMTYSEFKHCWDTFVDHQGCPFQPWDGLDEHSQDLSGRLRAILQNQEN

Cytochrome P450 2D6 = Cytochrome P450 2D6 (Homo sapiens, UniProt P10635);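 note: CYP2D6 member of a cytochrome P450 panel assay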
Chain of Cytochrome P450 2D6 (P10635 whole entry): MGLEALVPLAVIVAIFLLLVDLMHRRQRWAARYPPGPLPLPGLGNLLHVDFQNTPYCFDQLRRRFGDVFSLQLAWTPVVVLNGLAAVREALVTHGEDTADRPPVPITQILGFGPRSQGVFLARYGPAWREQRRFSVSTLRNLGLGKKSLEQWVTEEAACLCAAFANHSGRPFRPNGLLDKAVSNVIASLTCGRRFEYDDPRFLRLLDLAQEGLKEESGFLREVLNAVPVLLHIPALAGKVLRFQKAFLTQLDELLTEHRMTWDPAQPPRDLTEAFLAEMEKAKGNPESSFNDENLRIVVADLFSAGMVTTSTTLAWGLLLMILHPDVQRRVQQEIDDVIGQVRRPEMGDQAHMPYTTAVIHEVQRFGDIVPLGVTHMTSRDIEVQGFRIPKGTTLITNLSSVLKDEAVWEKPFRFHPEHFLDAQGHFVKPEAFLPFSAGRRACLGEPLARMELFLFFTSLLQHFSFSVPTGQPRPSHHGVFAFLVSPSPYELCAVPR

Large T antigen = Large T antigen (Simian virus 40, UniProt P03070); type: functional, Betapolyomavirus macacae;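 note: Confirmatory-stage PubChem screen for compounds that inhibit SV40 T antigen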
Chain of Large T antigen (P03070 whole entry): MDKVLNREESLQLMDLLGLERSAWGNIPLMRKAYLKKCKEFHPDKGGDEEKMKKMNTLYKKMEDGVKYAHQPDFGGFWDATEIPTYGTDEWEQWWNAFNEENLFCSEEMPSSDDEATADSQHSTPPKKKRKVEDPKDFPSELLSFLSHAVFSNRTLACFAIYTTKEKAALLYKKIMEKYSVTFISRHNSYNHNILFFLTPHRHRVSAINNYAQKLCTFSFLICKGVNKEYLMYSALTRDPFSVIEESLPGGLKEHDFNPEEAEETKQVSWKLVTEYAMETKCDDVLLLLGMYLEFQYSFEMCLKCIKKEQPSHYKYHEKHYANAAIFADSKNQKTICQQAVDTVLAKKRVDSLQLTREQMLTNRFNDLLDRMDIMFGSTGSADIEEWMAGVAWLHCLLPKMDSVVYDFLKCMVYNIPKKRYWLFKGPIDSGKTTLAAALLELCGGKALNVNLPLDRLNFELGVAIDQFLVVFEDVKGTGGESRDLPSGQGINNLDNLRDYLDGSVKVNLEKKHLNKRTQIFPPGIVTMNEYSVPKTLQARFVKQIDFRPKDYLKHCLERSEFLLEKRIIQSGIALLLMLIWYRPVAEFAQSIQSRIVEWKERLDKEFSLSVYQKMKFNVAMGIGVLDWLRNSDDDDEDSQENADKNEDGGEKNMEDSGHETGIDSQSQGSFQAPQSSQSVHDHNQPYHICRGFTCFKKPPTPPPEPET

[8] = biological target: FAD-linked sulfhydryl oxidase ALR (Homo sapiens, UniProt P55789); assay: inhibitors of human ALR sulfhydryl oxidase, dose response, biochemical, H2O2 detection, luminescence, cherry-pick (AID 493248)
Chain of FAD-linked sulfhydryl oxidase ALR (P55789 whole entry): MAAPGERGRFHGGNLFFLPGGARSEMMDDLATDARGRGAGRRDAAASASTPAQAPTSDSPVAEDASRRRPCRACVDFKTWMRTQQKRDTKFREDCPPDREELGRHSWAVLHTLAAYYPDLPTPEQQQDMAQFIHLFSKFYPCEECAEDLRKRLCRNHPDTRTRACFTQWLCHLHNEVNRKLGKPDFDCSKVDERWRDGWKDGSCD

[9] = biological target: Induced myeloid leukemia cell differentiation protein Mcl-1 (Homo sapiens, UniProt Q07820); type: functional
Chain of Induced myeloid leukemia cell differentiation protein Mcl-1 (Q07820 whole entry): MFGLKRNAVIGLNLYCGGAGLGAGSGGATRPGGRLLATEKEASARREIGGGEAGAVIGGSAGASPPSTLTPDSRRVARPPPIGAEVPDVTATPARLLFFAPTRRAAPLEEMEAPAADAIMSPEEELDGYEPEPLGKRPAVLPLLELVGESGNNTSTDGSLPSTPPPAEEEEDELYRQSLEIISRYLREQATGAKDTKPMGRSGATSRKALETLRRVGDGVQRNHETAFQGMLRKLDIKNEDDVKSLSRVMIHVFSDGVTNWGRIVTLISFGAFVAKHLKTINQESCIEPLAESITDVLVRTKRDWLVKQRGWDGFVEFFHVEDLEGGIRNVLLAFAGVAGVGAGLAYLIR

Caspase-6 = biological target: T4, Caspase-6 (Homo sapiens, UniProt P55212); assay: human caspase-6 inhibitors, dose response, biochemical, VEID-R110 fluorescence, cherry-pick (AID 720632)
T4 sequence (P55212 whole entry): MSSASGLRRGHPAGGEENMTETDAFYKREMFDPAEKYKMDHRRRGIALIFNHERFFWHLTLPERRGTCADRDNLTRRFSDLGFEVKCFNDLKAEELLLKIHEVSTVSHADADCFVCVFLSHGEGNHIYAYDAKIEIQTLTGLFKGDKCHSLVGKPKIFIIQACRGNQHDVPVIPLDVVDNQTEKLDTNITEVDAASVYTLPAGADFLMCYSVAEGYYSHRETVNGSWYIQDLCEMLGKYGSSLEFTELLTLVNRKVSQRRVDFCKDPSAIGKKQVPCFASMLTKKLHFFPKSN

[10] = biological target: T5, Carboxy-terminal domain RNA polymerase II polypeptide A small phosphatase 1 (Homo sapiens, UniProt Q9GZU7); assay: inhibitors of CTDSP1, concentration-response testing, biochemical assay, absorbance-based, actives from ultra-high-throughput screening (AID 540297); type: functional
T5 sequence (Q9GZU7 whole entry): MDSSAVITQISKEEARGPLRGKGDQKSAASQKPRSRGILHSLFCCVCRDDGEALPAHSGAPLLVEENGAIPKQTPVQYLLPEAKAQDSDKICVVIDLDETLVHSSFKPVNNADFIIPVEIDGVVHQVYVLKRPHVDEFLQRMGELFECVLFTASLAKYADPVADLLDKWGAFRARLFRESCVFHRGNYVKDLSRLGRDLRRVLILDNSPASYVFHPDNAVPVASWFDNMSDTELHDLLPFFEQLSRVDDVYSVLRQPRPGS

[11] = biological target: T6, Short transient receptor potential channel 4 (Mus musculus, UniProt Q9QUQ5); assay: mouse TRPC4 channel activators, dose response, cell-based, HEK293 TRPC4/mu-opioid, Fluo-4 calcium (AID 434937); type: functional
T6 sequence (Q9QUQ5 whole entry): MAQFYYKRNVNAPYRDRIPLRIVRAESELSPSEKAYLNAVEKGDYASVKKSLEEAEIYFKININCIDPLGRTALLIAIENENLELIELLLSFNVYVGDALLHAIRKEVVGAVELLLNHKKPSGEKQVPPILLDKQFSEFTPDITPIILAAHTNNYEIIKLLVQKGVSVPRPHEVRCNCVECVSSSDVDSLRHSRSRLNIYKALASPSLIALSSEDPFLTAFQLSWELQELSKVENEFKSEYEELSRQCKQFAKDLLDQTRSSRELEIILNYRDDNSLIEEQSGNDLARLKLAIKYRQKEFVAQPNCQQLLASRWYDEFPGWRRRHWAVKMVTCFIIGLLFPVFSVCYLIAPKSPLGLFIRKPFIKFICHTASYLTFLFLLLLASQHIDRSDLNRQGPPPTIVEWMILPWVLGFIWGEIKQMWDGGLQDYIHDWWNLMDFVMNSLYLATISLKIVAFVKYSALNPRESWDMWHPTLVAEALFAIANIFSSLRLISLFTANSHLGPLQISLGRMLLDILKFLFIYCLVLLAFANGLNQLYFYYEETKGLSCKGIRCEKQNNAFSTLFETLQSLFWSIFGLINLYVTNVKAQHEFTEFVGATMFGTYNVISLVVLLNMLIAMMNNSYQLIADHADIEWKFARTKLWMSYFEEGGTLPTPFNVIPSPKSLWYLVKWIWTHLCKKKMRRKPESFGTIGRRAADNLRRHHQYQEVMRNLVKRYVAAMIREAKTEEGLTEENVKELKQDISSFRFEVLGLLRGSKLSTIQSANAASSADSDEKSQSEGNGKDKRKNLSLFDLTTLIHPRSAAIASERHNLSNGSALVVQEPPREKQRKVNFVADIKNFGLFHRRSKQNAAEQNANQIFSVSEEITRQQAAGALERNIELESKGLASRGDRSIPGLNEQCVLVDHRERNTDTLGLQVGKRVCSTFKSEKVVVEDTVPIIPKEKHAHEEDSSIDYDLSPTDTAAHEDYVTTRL

Cc1ccc(S(=O)(=O)NCC(=O)N(CC(=O)NCC2CCCO2)C2CCCC2)cc1 (configuration not stated)
IC50 [1]: > 64 µM (inactive)

CCOC(=O)c1sc(NC(=O)c2cc(-c3ccccc3C)nc3ccccc23)c(C#N)c1C
EC50 (Streptokinase A): > 150 µM (not active)
AC50 [2]: 0.693 µM (active)
EC50 (Streptococcus): 36.2 µM (active)
IC50 [3]: 62.1 µM (inactive)
EC50 [4]: 1.04 µM (active)

CCOC(=O)CSc1nnc(CSc2nc(C)cc(C)n2)n1Cc1ccco1
IC50 [1]: > 64 µM (inactive)

CCOC(=O)C(CC)Sc1ccc2nnc(-c3cccnc3)n2n1 (configuration not stated)
EC50 [5]: > 195 µM (not active)
EC50 [6]: > 50 µM (active)

O=C1c2ccccc2CCCC12N=NCC2c1cccc2ccccc12 (configuration not stated)
EC50 (Mucolipin-3): 3.31 µM (active)
EC50 (Ion channel NompC): > 29.9 µM (not active)

Cc1ccc(CCNC(=O)c2cc(S(=O)(=O)N3CCCCC3)c[nH]2)cc1
EC50 [6]: > 50 µM (active)

Oc1ccc(C(=S)N2CCN(c3cccc(Cl)c3)CC2)cc1
IC50 [7]: 81 µM (active)

COc1ccc(/C=N/n2c(S)nnc2-c2cccs2)cc1
EC50 (Streptokinase A): > 150 µM (not active)
AC50 (Cytochrome P450 2D6): 3.55 µM (inconclusive)
EC50 (Streptococcus): 15.6 µM (active)
IC50 [1]: > 64 µM (inactive)
EC50 [4]: 7.17 µM (active)

CC(C)CCn1c(=O)c2ccccc2n2c(=S)[nH]nc12
IC50 (Large T antigen): 14.7 µM (active)
IC50 [7]: 1.19 µM (active)

COc1ccc(-c2c/c(=N\CC(=O)O)c3ccccc3o2)cc1.[O-][Cl+3]([O-])([O-])O
EC50 [6]: > 50 µM (active)

Sc1nnc(Nc2ccccc2)s1
AC50 [8]: 1.91 µM (active)
IC50 [7]: 0.892 µM (active)

O=C(CSc1ccsc1[N+](=O)[O-])Nc1cccc(F)c1
IC50 [9]: 2.92 µM (active)
AC50 (Caspase-6): 16.3 µM (active)
IC50 [1]: 50 µM (inactive)
IC50 [10]: 3.65 µM (active)

COC(=O)C1=CCCN(C)C1 [ARECOLINE HYDROBROMIDE]
EC50 [11]: 6.68 µM (active)
EC50 (Mucolipin-3): 2.26 µM (active)
EC50 (Ion channel NompC): > 29.9 µM (not active)

O=C(Nc1cccc([N+](=O)[O-])c1)Nc1cccs1
EC50 [6]: > 50 µM (active)

COc1ccc(-n2ncc3c(N4CCC(C(N)=O)CC4)ncnc32)cc1
IC50 [3]: > 80 µM (inactive)

C=C(C)Cn1c(C)cc(C)c(S(=O)(=O)c2ccccc2C)c1=O
EC50 (Mucolipin-3): 5.9 µM (active)
EC50 (Ion channel NompC): > 29.9 µM (not active)

CN(C1CCCCC1)S(=O)(=O)c1cccc(C#N)c1
EC50 (Mucolipin-3): 3.58 µM (active)
EC50 (Ion channel NompC): > 29.9 µM (not active)

Cn1nc(-c2ccc(N3CCOCC3)c(NS(=O)(=O)c3ccccc3)c2)c2ccccc2c1=O
IC50 [3]: > 80 µM (inactive)
